Entries after “also recorded” stand apart in the source; their conditions may differ.
Tests used:
Format in all cases: cell-based
CXCR4 [1] = target: T1, CXCR4 (Homo sapiens, UniProt P61073); assay: primary 1536 w β-arrestin recruitment assay (FRET, β-lactamase reporter) in U2OS cells overexpressing CXCR4; parameters: host or cells: U2OS
Method: In an effort to identify CXCR4 activators from the NIH Molecular Library Small Molecule Repository (MLSMR), a primary screening assay was developed to measure β-arrestin recruitment to the activated G-protein coupled receptor by Florescence Resonance Energy Transfer (FRET) in U2OS cells overexpressing the CXCR4 receptor engineered with a β-lactamase (bla) reporter system (Invitrogen cat #K1779). CXCR4-bla cells plated in 1536 w were stimulated in the presence of 10 uM compound concentration. […] Using this approach, 370,620 compounds from the NIH MLSMR were successfully screened and 303 hits were identified (hit rate=0.08%; Z′=0.83). […] These compounds were graded according to activity and structure resulting in 86 compounds that met criteria as potential CXCR4 agonists for further characterization.
Chemical stability, synthetic tractability, solubility and complete dose response and potency criteria led to the prioritization of the 5-aryl-2-cyclopropyl oxazole scaffold, represented by primary hit Compound 2 (Table 1). Early structure-activity relationship was established around the 5-aryl-2-cyclopropyl oxazole core with commercially available analogs with diverse substituents in the sulfonanilide ring of the scaffold. […] Keeping the 2-OMe substituent constant a small set of electron withdrawing and electron rich substituents at the 5-position of the anilide ring were screened (entries 16-19).

CXCR4 [2] = target: T1, CXCR4; assay: cAMP signaling assay, oxazole scaffold (forskolin-induced adenylate cyclase, CHO-K1 CXCR4 cells); parameters: host or cells: CHO-K1; conditions: listed as UCUF-728
Method: The CXCR4 receptor is a G-protein coupled receptor (GPCR) coupled to the Gi class, whose primary role is inhibition of adenylate cyclase. The ability of UCUF-728 to induce Gi-mediated cAMP-inhibitory cellular response was tested.
Forskolin at final concentration of […] was added to all wells using the TECAN dispenser. […] PathHunter CHO-K1 CXCR4 cells (DiscoverX, Fremont, CA) were added to compounds at 3,000 cells/well, centrifuged at 1000 rpm for 30 sec and incubated for 30 min at room temperature. DMSO (Sigma Aldrich, St. Louis, MO) was normalization to 0.5%. 5 μL of 4× Eu-cAMP tracer working solution was added to all wells followed by addition of 5 μL of 4× Ulight-anti-cAMP working solution to all wells. Plates were centrifuged at 1000 rpm for 1 min and incubated for 1 hr at room temperature then read using CLARIOstar Plus (BMG LABTECH Inc., Cary, NC) Lance CAMP protocol.

miR-15b = miR-15b expression in murine diabetic and non-diabetic fibroblasts; conditions: 24 h, response even at 0.1 μM; listed as UCUF-965
Method: (§1) Total RNA was extracted with TRIzol reagent (Invitrogen, Carlsbad, CA, USA) according to the manufacturer's established protocol. RNA was converted into cDNA using the SuperScript First-Strand Synthesis System (Invitrogen, Life Technologies). Primers and probes for mouse miR-15b and miR-29a were acquired from Applied Biosystems TaqMan gene expression assay (Applied Biosystems, Foster City, CA). Quantitative PCR was performed on a BIO-RAD CFX96 according to the manufacturer's instructions. Quantitative values of genes of interest are normalized based on U6. Samples (n=5 per group) were amplified in triplicate and results were averaged for each individual sample. The ΔΔCT method was used to calculate relative gene expression. Results are reported as mean±SD.
(§2) The expression of specific micro-RNA levels reported to be crucial in the wound-healing process were measured in order to validate and correlate the in vitro activity of UCUF-965 as a selective CXCR4 receptor modulator to micro-RNA expression. Murine diabetic and non-diabetic fibroblasts were cultured with increasing concentrations of the compound. The cells were incubated for 24 h and then total cellular RNA was isolated to examine the ability of the compound to correct the abnormal expression levels of miR-15b, miR-29a, and miR-146a. […]

miR-29a = miR-29a expression in murine fibroblasts; conditions: 24 h; listed as UCUF-965
Method: as §1, §2

miR-146a = miR-146a expression in murine fibroblasts; conditions: 24 h; listed as UCUF-965
Method: The expression of specific micro-RNA levels reported to be crucial in the wound-healing process were measured in order to validate and correlate the in vitro activity of UCUF-965 as a selective CXCR4 receptor modulator to micro-RNA expression. Murine diabetic and non-diabetic fibroblasts were cultured with increasing concentrations of the compound. The cells were incubated for 24 h and then total cellular RNA was isolated to examine the ability of the compound to correct the abnormal expression levels of miR-15b, miR-29a, and miR-146a. The effect of UCUF-965 on expression of miR-15b, which inhibits angiogenesis and wound repair was examined.

CXCR4 [3] = target: T1, CXCR4; assay: Calcium flux (Fluo-4) in CEM-CCRF cells; parameters: host or cells: CEM-CCRF; conditions: 10 μM; listed as UCUF-965
Method: Fluo-4 Direct Calcium Assay Kit (Invitrogen; F10472) reagents were prepared according to the supplier guidelines at 2× concentration and allowed to equilibrate to room temperature in the dark. […] Following incubation, 25 μL of cell suspension loaded with Fluo-4 Direct Calcium reagent was dispensed into a 384-well black wall clear-bottom plate (Corning; 3764). […] Calcium flux responses were measured on the BMG LABTECH CLARIOstar Plus (BMG LABTECH Inc., Cary, NC) using the CLARIOstar Plus supplier excitation and emission settings for Fluo-4 (Calcium Saturated). Measurements were conducted using a bottom-read kinetic well-mode with measurements occurring at 0.5 sec intervals for 150 sec and injection occurring at 10.0 sec.

T1 sequence (P61073 whole entry): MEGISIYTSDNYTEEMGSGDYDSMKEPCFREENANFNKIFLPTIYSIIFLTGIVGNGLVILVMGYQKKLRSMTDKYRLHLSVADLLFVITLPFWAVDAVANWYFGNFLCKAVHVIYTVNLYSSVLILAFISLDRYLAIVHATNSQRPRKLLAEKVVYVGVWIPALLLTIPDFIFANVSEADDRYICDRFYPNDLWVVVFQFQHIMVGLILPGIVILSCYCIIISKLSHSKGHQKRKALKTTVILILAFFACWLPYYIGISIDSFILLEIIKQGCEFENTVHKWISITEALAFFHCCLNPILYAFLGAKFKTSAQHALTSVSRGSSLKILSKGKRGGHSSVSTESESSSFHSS

EC50 (CXCR4 [1]; 1536 w screening platform) [nM] | CXCR4 b-arrestin Emax (%) (CXCR4 [1]; 1536 w, normalized to SDF-1α) | Structure (SMILES) | cAMP signaling / forskolin-induced adenylate cyclase (CXCR4 [2]) | miR-15b expression (miR-15b) | miR-29a expression (miR-29a) | miR-146a expression (miR-146a) | calcium flux activity (CXCR4 [3])
1100 | 60 | COc1ccc(OC)c(NS(=O)(=O)c2ccc(-c3cnc(C4CC4)o3)cc2)c1 [Oxazole Entry 19, 4-(2-Cyclopropyloxazol-5-yl)-N-(2,5-dimethoxyphenyl)benzenesulfonamide] | did not inhibit forskolin-induced adenylate cyclase; also recorded: does not show dose-dependent activity |  |  |  | 
 |  | CCOc1ccccc1-c1nnc2n1N=C(c1ccc(N3CCCC3)cc1)CS2 [Thiadiazine Entry 23, 3-(2-ethoxyphenyl)-6-(4-(pyrrolidin-1-yl)phenyl)-7H-[1,2,4]triazolo[3,4-b][1,3,4]thiadiazine] |  | decreased the expression of miR-15b; also recorded: suppression of miR15b | significant decrease of miR-29a levels; also recorded: suppression of miR15b and miR29a | increase of miR-146a levels; also recorded: induction of miR146a | induce CXCR4-mediated calcium flux
